Experimental data: PMC9820082, “Synthesis of 9-Hydroxy-1H-Benzo[f]chromene Derivatives with Effective Cytotoxic Activity on MCF7/ADR, P-Glycoprotein Inhibitors, Cell Cycle Arrest and Apoptosis Effects” (International Journal of Molecular Sciences, 2022)

How the values were obtained:
[1] = test system: SKOV-3 (ovarian cancer cell line); assay: MTT colorimetric cytotoxicity assay, SKOV-3; assay type: cell-based, human; conditions: 24 h incubation, mean ± standard error
Experimental: (§1) Three human cancer cell lines, PC-3 (human prostate adenocarcinoma, metastatic), […], were used to test the anti-proliferative activity of β-enaminonitrile (4a–p) using the MTT colorimetric assay at concentrations ranging from 0–100 μM. The representative active cytotoxic substances 4a, 4c, 4d, 4e, 4g, 4i, 4k and 4o were also tested against two normal cell lines, human fetal lung (HFL-1) and human diploid fibroblasts (WI-38), as well as Adriamycin (ADR)-resistant human breast cancer cells (MCF-7/ADR). The reference cytotoxic agents, Vinblastine and Doxorubicin, were used in the tests.
(§2) The cytotoxic activity was appraised using the 3-(4,5-dimethylthiazol-2-yl)-2,5-diphenyltetrazolium bromide (MTT) colorimetric assay for the antitumor cell lines, as reported previously, and the ELISA assay for MCF-7/ADR [69].

[2] = test system: human diploid fibroblasts (WI-38); assay: Cytotoxicity against normal cell line WI-38; assay type: cell-based; conditions: 24 h incubation, mean ± standard error
Experimental: as §1
(§3) The tumor cell lines MCF-7, HepG-2, PC-3 MCF-7/ADR, HFL-1 and (WI-38) were obtained from the American Type Culture Collection (ATCC, Rockville, MD, USA). The cells were grown on RPMI-1640 medium supplemented with 10% inactivated fetal calf serum and 50 µg/mL gentamycin. The cells were maintained at 37 ^οC in a humidified atmosphere with 5% CO2 and were subcultured two to three times a week.
as §2

[3] = test system: PC-3 (human prostate adenocarcinoma, metastatic); assay: MTT colorimetric cytotoxicity assay, PC-3; assay type: cell-based; conditions: for IC50: Homo sapiens, MTT, 24 h incubation, mean ± standard error; for times more active than Doxorubicin / times more active than Vinblastine: PC-3 cells, ratio of IC50 values
Experimental: as §1, §3, §2

[4] = test system: HeLa (cervical cancer cell line); assay: MTT colorimetric cytotoxicity assay, HeLa; assay type: cell-based, human; conditions: Homo sapiens, HeLa, 24 h, 24 h incubation, mean ± standard error
Experimental: as §1, §2

[5] = test system: MCF-7/ADR cells; assay: Annexin V/PI double staining flow cytometric apoptosis test; assay type: cell-based, human; conditions: IC50 value, 24 h
Excerpt: One of the optional mechanisms regarding the lethal action of chemotherapeutic medicines is blocking cell cycle progression, triggering apoptosis with otherwise mutual effect. […] The pivotal relation of the newly synthesized MCF-7/ADR “anticancer drugs” was further evaluated using the Annexin V/PI double staining flow cytometric test. […] In comparison to Doxorubicin’s 30% total apoptosis rate, which was nearly identical to 4a, 4c and 4g, compounds 4d, 4e and 4i were leading with percentages of 41%, 31% and 38%, respectively. Only compounds 4a (8.5%) and 4g (11%) had greater effects on necrosis compared to doxorubicin (5%). Other examined substances caused both early and late apoptosis in all treated cells (Figure 7b). Therefore, MCF-7/ADR cytotoxicity is induced by apoptotic processes, apparently without negative effects on P-gp.
(a) The dot plot of the Annexin V/PI-stained cells, treated with the indicated drugs. […] The data are expressed as the mean ± SD of three independent experiments in triplicate. Significances are shown in comparison to control cells (* p < 0.001). TEXT PRINTED IN THE PICTURE: (a) DOX.: 3.33%; 18.41%; 7.85% | (a) 4a: 8.66%; 18.17%; 4.24% | (a) 4c: 2.74%; 12.73%; 9.11% | (a) 4d: 4.85%; 27.44%; 8.73% | (a) 4e: 5.77%; 9.92%; 15.92% | (a) 4g: 11.04%; 3.94%; 7.38% | (a) 4i: 5.54%; 12.87%; 19.61% DOUBTS OF THE COPYIST ABOUT THIS PICTURE: The quadrant percentages in panel (a) are printed very small and blurred, so 3, 5, 6, 8 and 9 cannot be told apart with certainty. […] They are told apart only by their quadrant in the PI / Annexin V-FITC plot, and are listed upper left, upper right, lower right. / The sample line in each plot reads MCF7/ADR. In the 4g plot it is cut off as 'MCF7/AI'. / The panel 'Cont.' (untreated control: 1.56%, 0.15%, 0.48%) is left out because it is not a substance.

[6] = test system: human fetal lung (HFL-1); assay: Cytotoxicity against normal cell line HFL-1; assay type: cell-based; conditions: 24 h incubation, mean ± standard error
Experimental: as §1, §3, §2

[7] = test system: P-glycoprotein (P-gp); assay: P-gp content in MCF-7/ADR cell lysate (human P-gp ELISA kit); assay type: cell-based; conditions: for inhibitory effect on the P-gp level: MCF-7/ADR, in words; for inhibition at 48 h, 12.5 µM / inhibition at 48 h, 25 µM / inhibition at 48 h, 50 µM / inhibition at 48 h, 100 µM / IC50 at 48 h: human, MCF-7/ADR cells (cell lysate), MCF-7/ADR cell lysate, ELISA; for inhibition at 48 h, 12.5 µM: Conc. 12.5 (µM); for inhibition at 48 h, 25 µM: Conc. 25 (µM); for inhibition at 48 h, 50 µM: Conc. 50 (µM); for inhibition at 48 h, 100 µM: Conc. 100 (µM)
Experimental: P-glycoprotein (P-gp)-mediated multidrug resistance (MDR) is a phenomenon in which cells become resistant to structurally and mechanistically unrelated drugs, resulting in low intracellular drug concentrations. It is one of the noteworthy problems in malignant tumor clinical therapeutics.
The content of P-gp in the MCF-7/ADR cell lysates after incubation with varying conc. (12.5–100 µM) of tested compounds 4a, 4c, 4d, 4e, 4g and 4i following exposure for 48 hr was determined using a commercial human P-gp (Permeability Glycoprotein) ELISA Kit (MBS2506188, MyBioSource Inc., San Diego, CA, USA). Absorption was recorded at 450 nm with a Spectramax Gemini fluorescence microplate reader (Molecular Devices, Sunnyvale, CA, USA).

Compound | IC50 ([1]; Homo sapiens, SK-OV-3, 24 h) | IC50 [2] | IC50 ([2]; Homo sapiens, WI-38, 24 h) | IC50 [3] | times more active than Doxorubicin [3] | times more active than Vinblastine [3] | IC50 [4] | necrosis [5] | IC50 ([6]; Homo sapiens, HFL1, 24 h) | inhibitory effect on the P-gp level [7] | inhibition at 48 h, 12.5 µM [7] | inhibition at 48 h, 25 µM [7] | inhibition at 48 h, 50 µM [7] | inhibition at 48 h, 100 µM [7] | IC50 at 48 h [7] | total apoptosis rate [5] | IC50 [1] | IC50 [6]
N#CC1=C(N)Oc2ccc3ccc(O)cc3c2C1c1ccc(F)cc1F (centres unmarked) [4a, 3-Amino-1-(2,4-Difluorophenyl)-9-Hydroxy-1H-Benzo[f]chromene-2-Carbonitrile] | 1400 ± 200 nM | 34.3 ± 1.2 µM | 19.1 to 30.1 µM | 1100 ± 400 nM | 1.2 times | 6.8 times | 2800 ± 300 nM | 8.5% | 26.5 ± 0.3 µM | strong inhibitory effect | 25% | 37% | 68% | 80% | 32 µM | – | – | –
N#CC1=C(N)Oc2ccc3ccc(O)cc3c2C1c1cc(Cl)ccc1Cl (centres unmarked) [4e, 3-Amino-1-(2,5-Dichlorophenyl)-9-Hydroxy-1H-Benzo[f]chromene-2-Carbonitrile] | 1100 ± 400 nM | – | 25.4 ± 1.1 µM | 2100 ± 500 nM | – | – | 2700 ± 600 nM | – | 24.1 ± 0.3 µM | strong inhibitory effect | 36% | 54% | 80% | 91% | 18.7 µM | 31% | – | –
N#CC1=C(N)Oc2ccc3ccc(O)cc3c2C1c1ccc(Cl)cc1Cl (centres unmarked) [4d, 3-Amino-1-(2,4-Dichlorophenyl)-9-Hydroxy-1H-Benzo[f]chromene-2-Carbonitrile] | 1500 ± 100 nM | 39.1 ± 0.2 µM | – | 2000 ± 700 nM | – | – | 1800 ± 100 nM | – | 20.1 ± 0.4 µM | almost negligible inhibitory effect | 10% | 25% | 43% | 69% | 65.9 µM | 41% | – | –
N#CC1=C(N)Oc2ccc3ccc(O)cc3c2C1c1cccc(Cl)c1Cl (centres unmarked) [4c, 3-Amino-1-(2,3-Dichlorophenyl)-9-Hydroxy-1H-Benzo[f]chromene-2-Carbonitrile] | – | – | 29.4 ± 0.1 µM | 2900 ± 700 nM | – | – | 1700 ± 100 nM | – | 22.1 ± 0.2 µM | strong inhibitory effect | 26% | 37% | 71% | 88% | 30.8 µM | – | 4000 ± 600 nM | –
N#CC1=C(N)Oc2ccc3ccc(O)cc3c2C1c1ccc(Cl)c(Cl)c1 (centres unmarked) [4g, 3-Amino-1-(3,4-Dichlorophenyl)-9-Hydroxy-1H-Benzo[f]chromene-2-Carbonitrile] | 900 ± 300 nM | – | 26.3 ± 0.2 µM | 2400 ± 100 nM | – | – | 2200 ± 200 nM | 11% | 27.4 ± 0.1 µM | – | 23% | 34% | 66% | 83% | 34.6 µM | – | – | –
N#CC1=C(N)Oc2ccc3ccc(O)cc3c2C1c1cc(Br)cc(Br)c1 (centres unmarked) [4i, 3-Amino-1-(3,5-Dibromophenyl)-9-Hydroxy-1H-Benzo[f]chromene-2-Carbonitrile] | 1200 nM | – | 29.2 ± 1.2 µM | 800 ± 100 nM | 1.6 times | 9.4 times | 3400 ± 600 nM | – | 19.1 to 30.1 µM | almost negligible inhibitory effect | 15% | 30% | 48% | 76% | 53.6 µM | 38% | 1100 ± 100 nM | 38.1 ± 0.4 µM
